Measured values from ChEMBL document CHEMBL2401692, “Synthesis, structure-activity relationships, and in vivo efficacy of the novel potent and selective anaplastic lymphoma kinase (ALK) inhibitor 5-chloro-N2-(2-isopropoxy-5-methyl-4-(piperidin-4-yl)phenyl)-N4-(2-(isopropylsulfonyl)phenyl)pyrimidine-2,4-diamine (LDK378) currently in phase 1 and phase …” (J Med Chem, 2013).
Values after ≈ are worked out from the molar mass of the structure shown.

How the values were obtained:
Rattus norvegicus [1] = experiment: Inhibition of ALK-mediated STAT3 phosphorylation in human KARPAS299 cells xenografted in Rowett nude rat at 50 mg/kg, po after 72 hrs Western blotting analysis relative to control; assay type: functional; conditions: KARPAS-299, 72 h
Rattus norvegicus [2] = experiment: Toxicity in po dosed Rowett nude rat xenografted with human KARPAS299 cells assessed as body weight loss at 6.25 to 50 mg/kg, po; assay type: organism-based, KARPAS-299; design: dose 6.25-50 mg/kg, route oral; conditions: in vivo
[3] = Toxicity in po dosed Rowett nude rat xenografted with human NCI-H2228 cells; assay type: organism-based; conditions: in vivo
NCI-H2228 [4] = experiment: Antitumor activity against human NCI-H2228 cells xenografted in Rowett nude rat assessed as tumor growth inhibition factor at 5 mg/kg, po for 14 days measured 7 to 72 hrs post dosing relative to control; assay type: functional
KARPAS-299 = experiment: Antitumor activity against human KARPAS299 cells xenografted in Rowett nude rat assessed as tumor regression at 50 mg/kg, po for 14 days measured 7 to 72 hrs post dosing relative to control; assay type: functional
[5] = Oral bioavailability in cynomolgus monkey at 60 mg/kg; assay type: ADME, organism-based, Macaca fascicularis; conditions: in vivo
[6] = Tmax in cynomolgus monkey at 60 mg/kg, po; assay type: ADME, organism-based, Macaca fascicularis; design: dose 60 mg/kg, route oral; conditions: in vivo
[7] = Cmax in cynomolgus monkey at 60 mg/kg, po; assay type: ADME, organism-based, Macaca fascicularis; design: dose 60 mg/kg, route oral; conditions: in vivo
[8] = Volume of distribution at steady state in cynomolgus monkey at 5 mg/kg, iv; assay type: ADME, organism-based, Macaca fascicularis; design: dose 5 mg/kg, route intravenous; conditions: in vivo, read-out: Vdss
[9] = AUC in cynomolgus monkey at 5 mg/kg, iv; assay type: ADME, organism-based, Macaca fascicularis; design: dose 5 mg/kg, route intravenous; conditions: plasma
[10] = Oral bioavailability in Beagle dog at 20 mg/kg; assay type: ADME, organism-based, Canis lupus familiaris; conditions: in vivo
[11] = Cmax in Beagle dog at 20 mg/kg, po; assay type: ADME, organism-based, Canis lupus familiaris; design: dose 20 mg/kg, route oral; conditions: in vivo
[12] = Half life in Beagle dog at 5 mg/kg, iv; assay type: ADME, organism-based, Canis lupus familiaris; design: dose 5 mg/kg, route intravenous; conditions: in vivo
[13] = Tmax in Beagle dog at 5 mg/kg, iv; assay type: ADME, organism-based, Canis lupus familiaris; design: dose 5 mg/kg, route intravenous; conditions: in vivo
[14] = Volume of distribution at steady state in Beagle dog at 5 mg/kg, iv; assay type: ADME, organism-based, Canis lupus familiaris; design: dose 5 mg/kg, route intravenous; conditions: in vivo, read-out: Vdss
[15] = AUC in Beagle dog at 5 mg/kg, iv; assay type: ADME, organism-based, Canis lupus familiaris; design: dose 5 mg/kg, route intravenous; conditions: plasma
[16] = Oral bioavailability in Sprague-Dawley rat at 10 mg/kg; assay type: ADME, organism-based; conditions: in vivo
[17] = Tmax in Sprague-Dawley rat at 10 mg/kg, po; assay type: ADME, organism-based; design: dose 10 mg/kg, route oral; conditions: in vivo
[18] = AUC in Sprague-Dawley rat at 10 mg/kg, po; assay type: ADME, organism-based; design: dose 10 mg/kg, route oral; conditions: plasma
[19] = Tmax in Sprague-Dawley rat at 3 mg/kg, iv; assay type: ADME, organism-based; design: dose 3 mg/kg, route intravenous; conditions: in vivo
[20] = AUC in Sprague-Dawley rat at 3 mg/kg, iv; assay type: ADME, organism-based; design: dose 3 mg/kg, route intravenous; conditions: plasma
[21] = Tmax in BALB/c mouse at 20 mg/kg, po; assay type: ADME, organism-based; design: dose 20 mg/kg, route oral; conditions: in vivo
[22] = Half life in BALB/c mouse at 5 mg/kg, iv; assay type: ADME, organism-based; design: dose 5 mg/kg, route intravenous; conditions: in vivo
[23] = Tmax in BALB/c mouse at 5 mg/kg, iv; assay type: ADME, organism-based; design: dose 5 mg/kg, route intravenous; conditions: in vivo
[24] = Cmax in BALB/c mouse at 5 mg/kg, iv; assay type: ADME, organism-based; design: dose 5 mg/kg, route intravenous; conditions: in vivo
[25] = Volume of distribution at steady state in BALB/c mouse at 5 mg/kg, iv; assay type: ADME, organism-based; design: dose 5 mg/kg, route intravenous; conditions: in vivo, read-out: Vdss
[26] = Plasma clearance in BALB/c mouse at 5 mg/kg, iv; assay type: ADME, organism-based; design: dose 5 mg/kg, route intravenous
[27] = target: BDNF/NT-3 growth factors receptor (Homo sapiens, UniProt Q16620); experiment: Inhibition of TEL-fused TRKB (unknown origin) by cell-based assay
[28] = target: Transcription factor ETV6 (Homo sapiens, UniProt P41212); experiment: Inhibition of wild-type TEL (unknown origin) by cell-based assay
[29] = target: High affinity nerve growth factor receptor (Homo sapiens, UniProt P04629); experiment: Inhibition of TEL-fused TRKA (unknown origin) by cell-based assay
[30] = target: T1, Tyrosine-protein kinase Lyn (Homo sapiens, UniProt P07948); experiment: Inhibition of TEL-fused LYN (unknown origin) by cell-based assay
T1 sequence (P07948 whole entry, the tested form may be a part): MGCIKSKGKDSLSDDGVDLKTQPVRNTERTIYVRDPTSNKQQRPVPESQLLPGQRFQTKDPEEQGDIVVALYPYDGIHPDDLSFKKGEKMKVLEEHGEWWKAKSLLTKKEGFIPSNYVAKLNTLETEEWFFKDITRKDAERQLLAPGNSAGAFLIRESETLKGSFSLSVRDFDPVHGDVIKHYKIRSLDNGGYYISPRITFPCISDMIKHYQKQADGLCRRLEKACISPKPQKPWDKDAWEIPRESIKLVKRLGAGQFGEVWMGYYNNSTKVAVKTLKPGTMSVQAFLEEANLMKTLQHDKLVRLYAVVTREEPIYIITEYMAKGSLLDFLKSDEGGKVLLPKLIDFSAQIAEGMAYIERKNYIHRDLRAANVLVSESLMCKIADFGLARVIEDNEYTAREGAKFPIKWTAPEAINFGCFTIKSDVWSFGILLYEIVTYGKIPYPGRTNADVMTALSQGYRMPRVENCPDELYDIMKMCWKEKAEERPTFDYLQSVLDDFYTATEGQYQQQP

[31] = target: Vascular endothelial growth factor receptor 2 (Homo sapiens, UniProt P35968); experiment: Inhibition of TEL-fused KDR (unknown origin) by cell-based assay
[32] = target: Tyrosine-protein kinase JAK2 (Homo sapiens, UniProt O60674); experiment: Inhibition of TEL-fused JAK2 (unknown origin) by cell-based assay
[33] = target: Receptor-type tyrosine-protein kinase FLT3 (Homo sapiens, UniProt P36888); experiment: Inhibition of TEL-fused FLT3 (unknown origin) by cell-based assay
[34] = target: Tyrosine-protein kinase ZAP-70 (Homo sapiens, UniProt P43403); experiment: Inhibition of ZAP70 (unknown origin) after 60 mins
[35] = target: Rho-associated protein kinase 2 (Homo sapiens, UniProt O75116); experiment: Inhibition of ROCK2 (unknown origin) after 60 mins
[36] = target: Serine/threonine-protein kinase PAK 2 (Homo sapiens, UniProt Q13177); experiment: Inhibition of PAK2 (unknown origin) after 60 mins
Sequence of Serine/threonine-protein kinase PAK 2 (Q13177 whole entry): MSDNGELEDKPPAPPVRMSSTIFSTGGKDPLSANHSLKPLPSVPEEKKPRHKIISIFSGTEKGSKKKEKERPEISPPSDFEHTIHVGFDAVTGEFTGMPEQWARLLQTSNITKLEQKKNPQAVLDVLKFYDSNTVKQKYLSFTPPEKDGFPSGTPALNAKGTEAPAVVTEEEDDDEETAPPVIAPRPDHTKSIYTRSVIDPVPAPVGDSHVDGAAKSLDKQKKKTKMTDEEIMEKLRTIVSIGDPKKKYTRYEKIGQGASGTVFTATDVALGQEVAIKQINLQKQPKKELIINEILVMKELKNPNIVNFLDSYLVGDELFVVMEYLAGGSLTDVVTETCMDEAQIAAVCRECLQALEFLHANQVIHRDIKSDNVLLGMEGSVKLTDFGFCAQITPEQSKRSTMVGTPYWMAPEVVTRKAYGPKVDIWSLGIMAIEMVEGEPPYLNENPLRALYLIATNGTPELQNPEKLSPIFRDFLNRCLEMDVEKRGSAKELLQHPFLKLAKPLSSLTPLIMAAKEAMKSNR

[37] = target: MAP kinase-interacting serine/threonine-protein kinase 2 (Homo sapiens, UniProt Q9HBH9); experiment: Inhibition of MKNK2 (unknown origin) after 60 mins
[38] = target: T1, Tyrosine-protein kinase Lyn; experiment: Inhibition of LYN (unknown origin) after 60 mins
[39] = target: Tyrosine-protein kinase Lck (Homo sapiens, UniProt P06239); experiment: Inhibition of LCK (unknown origin) after 60 mins
Sequence of Tyrosine-protein kinase Lck (P06239 whole entry): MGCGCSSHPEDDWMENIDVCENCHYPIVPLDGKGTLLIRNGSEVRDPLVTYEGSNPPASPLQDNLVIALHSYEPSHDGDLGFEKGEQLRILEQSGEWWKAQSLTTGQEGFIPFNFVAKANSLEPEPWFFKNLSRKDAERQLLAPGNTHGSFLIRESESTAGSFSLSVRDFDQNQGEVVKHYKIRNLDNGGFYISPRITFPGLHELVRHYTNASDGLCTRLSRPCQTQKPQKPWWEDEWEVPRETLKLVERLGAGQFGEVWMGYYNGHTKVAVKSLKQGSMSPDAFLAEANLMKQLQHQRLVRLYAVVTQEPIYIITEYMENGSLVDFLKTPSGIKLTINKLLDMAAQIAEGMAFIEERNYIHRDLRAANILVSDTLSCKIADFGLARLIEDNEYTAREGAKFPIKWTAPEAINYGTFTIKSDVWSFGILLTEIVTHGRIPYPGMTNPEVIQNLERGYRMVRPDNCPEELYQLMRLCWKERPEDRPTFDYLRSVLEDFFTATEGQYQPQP

[40] = target: Mast/stem cell growth factor receptor Kit (Homo sapiens, UniProt P10721); experiment: Inhibition of cKIT (unknown origin) after 60 mins
[41] = target: Tyrosine-protein kinase JAK1 (Homo sapiens, UniProt P23458); experiment: Inhibition of JAK1 (unknown origin) after 60 mins
[42] = target: Receptor-type tyrosine-protein kinase FLT3 (Homo sapiens, UniProt P36888); experiment: Inhibition of FLT3 (unknown origin) after 60 mins
Target sequence in this assay (P36888 whole entry, the tested form may be a part): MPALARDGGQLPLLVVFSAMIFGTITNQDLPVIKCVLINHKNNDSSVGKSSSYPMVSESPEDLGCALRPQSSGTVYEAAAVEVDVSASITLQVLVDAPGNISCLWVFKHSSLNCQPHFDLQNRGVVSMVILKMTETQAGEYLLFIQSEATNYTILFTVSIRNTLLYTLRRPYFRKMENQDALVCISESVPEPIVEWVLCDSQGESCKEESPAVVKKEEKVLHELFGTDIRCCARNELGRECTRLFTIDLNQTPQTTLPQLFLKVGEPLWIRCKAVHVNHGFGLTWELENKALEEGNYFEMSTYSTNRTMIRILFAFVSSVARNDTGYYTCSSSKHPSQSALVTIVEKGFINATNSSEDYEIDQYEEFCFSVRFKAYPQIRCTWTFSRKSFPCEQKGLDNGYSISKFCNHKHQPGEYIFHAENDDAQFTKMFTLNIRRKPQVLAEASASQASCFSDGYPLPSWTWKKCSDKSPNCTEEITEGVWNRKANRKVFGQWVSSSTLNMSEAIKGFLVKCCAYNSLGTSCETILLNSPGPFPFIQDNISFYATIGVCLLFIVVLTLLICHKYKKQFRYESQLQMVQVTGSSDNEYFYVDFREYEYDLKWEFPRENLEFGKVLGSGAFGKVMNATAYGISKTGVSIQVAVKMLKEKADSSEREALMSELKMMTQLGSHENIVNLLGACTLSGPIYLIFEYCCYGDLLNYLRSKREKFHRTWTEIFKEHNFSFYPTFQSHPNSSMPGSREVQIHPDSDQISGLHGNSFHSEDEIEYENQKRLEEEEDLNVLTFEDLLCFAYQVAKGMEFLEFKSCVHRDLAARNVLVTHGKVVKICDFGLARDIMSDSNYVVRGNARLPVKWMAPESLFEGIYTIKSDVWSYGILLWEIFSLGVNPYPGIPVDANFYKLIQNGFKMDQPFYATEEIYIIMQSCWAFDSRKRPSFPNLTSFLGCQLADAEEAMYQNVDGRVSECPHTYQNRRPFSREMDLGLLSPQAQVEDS

[43] = target: Fibroblast growth factor receptor 4 (Homo sapiens, UniProt P22455); experiment: Inhibition of FGFR4 (unknown origin) after 60 mins
[44] = target: Fibroblast growth factor receptor 2 (Homo sapiens, UniProt P21802); experiment: Inhibition of FGFR2 (unknown origin) after 60 mins
[45] = target: Cyclin-dependent kinase 2 (Homo sapiens, UniProt P24941); experiment: Inhibition of CDK2 (unknown origin) after 60 mins
[46] = Inhibition of Aurora kinase (unknown origin) after 60 mins; design: species or system Homo sapiens
Rhesus monkey = experiment: Cardiotoxicity in monkey assessed as QTc prolongation; assay type: toxicity, organism-based, Macaca mulatta; conditions: in vivo
[47] = target: Tyrosine-protein kinase ABL1 (Homo sapiens, UniProt P00519); experiment: Inhibition of ABL (unknown origin) after 60 mins
Sequence of Tyrosine-protein kinase ABL1 (P00519 whole entry): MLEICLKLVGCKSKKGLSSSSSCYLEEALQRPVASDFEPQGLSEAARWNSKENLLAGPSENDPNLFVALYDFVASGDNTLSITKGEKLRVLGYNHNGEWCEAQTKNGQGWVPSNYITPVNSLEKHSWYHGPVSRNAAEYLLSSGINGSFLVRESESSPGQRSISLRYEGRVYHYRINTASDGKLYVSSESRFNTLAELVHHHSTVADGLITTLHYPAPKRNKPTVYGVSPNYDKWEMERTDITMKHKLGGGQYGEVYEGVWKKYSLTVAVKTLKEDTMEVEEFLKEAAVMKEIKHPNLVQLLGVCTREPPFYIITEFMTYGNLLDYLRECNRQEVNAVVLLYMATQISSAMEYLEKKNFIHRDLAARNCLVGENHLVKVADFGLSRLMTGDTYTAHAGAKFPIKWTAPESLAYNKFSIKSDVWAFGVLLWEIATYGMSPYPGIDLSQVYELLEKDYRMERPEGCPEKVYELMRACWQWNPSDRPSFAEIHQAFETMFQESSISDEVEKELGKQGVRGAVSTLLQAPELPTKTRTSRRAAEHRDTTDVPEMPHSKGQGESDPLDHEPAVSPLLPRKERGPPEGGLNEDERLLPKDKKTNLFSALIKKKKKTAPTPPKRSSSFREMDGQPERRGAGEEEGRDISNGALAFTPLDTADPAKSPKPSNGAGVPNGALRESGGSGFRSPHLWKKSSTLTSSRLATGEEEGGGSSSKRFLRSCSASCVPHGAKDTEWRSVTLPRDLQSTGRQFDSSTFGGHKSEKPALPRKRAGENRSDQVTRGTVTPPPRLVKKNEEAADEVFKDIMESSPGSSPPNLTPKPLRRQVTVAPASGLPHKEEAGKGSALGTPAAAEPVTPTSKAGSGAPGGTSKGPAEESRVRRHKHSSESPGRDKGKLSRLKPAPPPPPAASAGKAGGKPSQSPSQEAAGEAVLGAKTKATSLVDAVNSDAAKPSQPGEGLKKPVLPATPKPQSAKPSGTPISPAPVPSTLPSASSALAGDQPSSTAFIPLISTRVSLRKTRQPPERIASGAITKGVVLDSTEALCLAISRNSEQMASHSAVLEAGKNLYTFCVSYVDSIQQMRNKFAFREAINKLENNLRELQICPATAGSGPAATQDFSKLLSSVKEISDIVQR

Canis familiaris = species on record: Canis familiaris; experiment: Cardiotoxicity in dog assessed as QTc prolongation; assay type: toxicity, organism-based, Canis lupus familiaris; conditions: in vivo
[48] = Plasma clearance in cynomolgus monkey at 5 mg/kg, iv; assay type: ADME, organism-based, Macaca fascicularis; design: dose 5 mg/kg, route intravenous
[49] = Solubility of the compound […] at pH 6.8; assay type: physicochemical
[50] = Intrinsic clearance in human liver microsomes; assay type: ADME, Microsome; conditions: read-out: CLH
[51] = Intrinsic clearance in rat liver microsomes; assay type: ADME, Microsome; conditions: read-out: CLH
[52] = target: Hepatocyte growth factor receptor (Homo sapiens, UniProt P08581)
Sequence of Hepatocyte growth factor receptor (P08581 whole entry): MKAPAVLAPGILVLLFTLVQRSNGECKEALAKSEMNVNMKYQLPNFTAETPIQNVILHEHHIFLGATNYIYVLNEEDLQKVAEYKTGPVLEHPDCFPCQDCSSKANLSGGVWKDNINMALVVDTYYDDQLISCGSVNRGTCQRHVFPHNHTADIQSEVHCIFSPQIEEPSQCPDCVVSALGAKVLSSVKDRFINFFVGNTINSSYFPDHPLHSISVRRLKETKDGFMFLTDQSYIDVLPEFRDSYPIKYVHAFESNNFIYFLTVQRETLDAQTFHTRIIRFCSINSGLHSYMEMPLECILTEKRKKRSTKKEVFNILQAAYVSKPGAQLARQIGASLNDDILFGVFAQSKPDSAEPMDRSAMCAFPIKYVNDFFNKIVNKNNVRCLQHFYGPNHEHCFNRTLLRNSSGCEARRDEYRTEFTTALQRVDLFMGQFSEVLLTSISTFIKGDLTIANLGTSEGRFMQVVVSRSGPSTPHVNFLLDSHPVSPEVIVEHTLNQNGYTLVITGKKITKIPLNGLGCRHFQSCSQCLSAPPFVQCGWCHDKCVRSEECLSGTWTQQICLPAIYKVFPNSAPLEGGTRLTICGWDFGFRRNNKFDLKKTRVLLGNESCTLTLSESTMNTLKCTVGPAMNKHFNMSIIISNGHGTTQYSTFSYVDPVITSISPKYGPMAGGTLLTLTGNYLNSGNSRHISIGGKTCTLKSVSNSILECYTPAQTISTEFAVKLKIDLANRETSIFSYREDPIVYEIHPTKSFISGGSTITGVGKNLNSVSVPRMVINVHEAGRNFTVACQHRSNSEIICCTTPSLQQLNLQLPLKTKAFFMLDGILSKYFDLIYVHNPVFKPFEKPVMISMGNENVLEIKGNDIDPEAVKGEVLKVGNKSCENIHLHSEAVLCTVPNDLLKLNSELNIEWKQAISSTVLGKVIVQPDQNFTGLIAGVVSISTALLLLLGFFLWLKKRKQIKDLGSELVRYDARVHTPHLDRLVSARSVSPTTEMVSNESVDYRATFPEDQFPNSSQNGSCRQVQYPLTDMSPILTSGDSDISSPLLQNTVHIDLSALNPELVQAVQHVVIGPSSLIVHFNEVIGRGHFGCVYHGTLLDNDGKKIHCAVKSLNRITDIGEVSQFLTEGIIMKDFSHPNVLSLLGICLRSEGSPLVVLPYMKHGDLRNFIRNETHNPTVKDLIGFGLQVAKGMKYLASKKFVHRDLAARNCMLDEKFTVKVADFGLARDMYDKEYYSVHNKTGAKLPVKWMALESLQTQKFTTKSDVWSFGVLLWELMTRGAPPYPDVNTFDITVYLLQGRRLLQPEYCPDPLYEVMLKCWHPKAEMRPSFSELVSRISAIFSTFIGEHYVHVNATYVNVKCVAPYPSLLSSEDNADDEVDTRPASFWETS
Description: Inhibition of cMET (unknown origin) after 60 mins

NCI-H2228 [53] = conditions: Homo sapiens
Description: Antitumor activity against human NCI-H2228 cells xenografted in po dosed Rowett nude rat assessed as tumor growth inhibition administered for 14 days measured 7 to 72 hrs post dosing

BaF3 = experiment: cells; conditions: Mus musculus

SMILES: Cc1cc(Nc2ncc(Cl)c(Nc3ccccc3S(=O)(=O)C(C)C)n2)c(OC(C)C)cc1C1CCNCC1 [CERITINIB]
- inhibition in vivo at 50 mg/kg (Rattus norvegicus [1]): 80%
- Activity (Rattus norvegicus [2]): Non-toxic
- MTD [3]: 5 mg/kg
- T/C (NCI-H2228 [4]): 67%
- T/C (KARPAS-299): -66%
- bioavailability [5]: 56%
- Tmax [6]: 13 h
- Cmax [7]: 1700 nM
- Vd [8]: 15 L/kg
- AUC [9]: 11.3 µM·h
- bioavailability [10]: 119%
- Cmax [11]: 1900 nM
- half-life [12]: 21 h
- Tmax [13]: 1.8 min
- Vd [14]: 13.5 L/kg
- AUC [15]: 18.1 µM·h
- bioavailability [16]: 66%
- Tmax [17]: 7 h
- AUC [18]: 6.09 µM·h
- Tmax [19]: 1.8 min
- AUC [20]: 2.78 µM·h
- Tmax [21]: 7 h
- half-life [22]: 6.2 h
- Tmax [23]: 1.8 min
- Cmax [24]: 1760 nM
- Vd [25]: 9.7 L/kg
- clearance [26]: 26.6 mL/min/kg
- IC50 [27]: 1830 nM
- IC50 [28]: 3250 nM
- IC50 [29]: 2730 nM
- IC50 [30]: 2310 nM
- IC50 [31]: 4210 nM
- IC50 [32]: 2160 nM
- IC50 [33]: 3140 nM
- IC50 [34]: 9700 nM
- IC50 [35]: 1270 nM
- IC50 [36]: > 10000 nM
- IC50 [37]: 2240 nM
- IC50 [38]: 840 nM
- IC50 [39]: 560 nM
- IC50 [40]: 1280 nM
- IC50 [41]: 3730 nM
- IC50 [42]: 60 nM
- IC50 [43]: 950 nM
- IC50 [44]: 260 nM
- IC50 [45]: 3970 nM
- IC50 [46]: 660 nM
- Activity (Rhesus monkey): Non-toxic
- IC50 [47]: 1250 nM
- Activity (Canis familiaris): Non-toxic
- clearance [48]: 12.8 mL/min/kg
- solubility [49]: 24 µM (≈ 13.4 µg/mL)
- microsomal CLint [50]: 19 µL/min/mg
- microsomal CLint [51]: 10 µL/min/mg
- IC50 [52]: 3170 nM
- TGI (NCI-H2228 [53]): Dose-dependent effect
- IC50 (BaF3): 2480 nM
